Test results from PMC7144320, “Antitumor properties of certain spirooxindoles towards hepatocellular carcinoma endowed with antioxidant activity” (Journal of Enzyme Inhibition and Medicinal Chemistry, 2020).
pIC50: −log10 of the molar value. “And” between values parts separate entries of the source, which are not always exact repeats. Equal values may be shown once.

Assays:
[1] = system: HepG2 hepatocellular carcinoma cell line; experiment: MTT anti-proliferative assay, HepG2; format: cell-based; details: Homo sapiens, 48 h of incubation
Description: (§1) Spirooxindoles 6a–p were evaluated for their anti-proliferative potency towards HepG2 liver cancer and PC-3 prostate cancer cell lines. Both cells lines were cultured as monolayers in DMEM supplemented with 10% foetal bovine serum (FBS), L-glutamine (2 mM), penicillin (100 U/mL) and streptomycin sulphate (100 µg/mL). Then, cells were sub-cultured with trypsine/EDTA solution, counted with haemocytometer and plated onto 96-well plates (5000 cells/well) and left overnight so as to form a semi-confluent monolayer.
(§2) Spirooxindoles 6a–p were tested for their in vitro anti-HCC activity against HepG2 cell line, and for their anti-prostate cancer activity against PC-3 cell line by the use of MTT reduction assay. The anticancer drug Adriamycin was co-assayed as the positive control.

[2] = system: PC-3 prostate cancer cell line; experiment: MTT anti-proliferative assay, PC-3; format: cell-based; details: 48 h of incubation
Description: as §1, §2

[3] = DPPH radical scavenging assay; details: mean ± SD of three experiments; 30 min, 517 nm
Description: The antioxidant potential of spirooxindoles 6a–p against DPPH˙ was evaluated as per previously described procedures by Brand-Williams et al.[32]. DPPH solution was prepared by dissolving 0.024 g DPPH in methanol (100 mL). In 96-well plates, × μL sample and 200-x μL DPPH solution were added. The plate was incubated for 30 min at room temperature in the dark, and finally, absorbance was recorded at 517 nm wavelength. Ascorbic acid was used as positive control. The percent radical scavenging potential was calculated for each compound via the following equation: Scavenging effect (%) = {(Absorbance of control − Absorbance of sample)/Absorbance of control} × 100.
The DPPH (2,2-diphenyl-1-picrylhydrazyl) radical scavenging activity assay is considered as one of the most common and simple methods for measuring the antioxidant ability to trap free radicals. […] Substances that have the potential to act as electron donors result in reduction of this DPPH radical to the corresponding DPPH2 disclosing their antioxidant potential. The principle of the method relies upon measuring the absorbance of the odd electrons of DPPH at 517 nm. The absorbance decreases, in the presence of free radical scavengers, proportional to the decrease of the DPPH radical concentration.

[4] = Ferric reducing antioxidant power (FRAP); details: 593 nm, 30 min at 37 °C
Description: The Benzie and Strain method[33] was adopted to assess the ferric reducing antioxidant power (FRAP) for spirooxindoles 6a–p. Absorbance of mixtures was recorded at 593 nm after incubation for 30 min at 37 °C. FRAP results were expressed as μM Fe^2+ equivalents.
FRAP assay is a widely used antioxidant assay that uses antioxidant substances as reducing agents in a redox-linked colorimetric reaction, wherein Fe^3+ is reduced to Fe^2+ at acidic pH that results in a formation of a coloured ferrous-probe complex from a colourless ferric-probe complex. In this assay, the electron donation capacity (reflecting the electron transfer ability) of the examined compounds is evaluated.
In this study, all spirooxindoles 6a–p herein reported were evaluated for their potential FRAP. The results were expressed as µM Fe^2+ equivalents and presented in Table 6, where the higher µM Fe^2+ equivalents value means higher FRAP and subsequently higher antioxidant capacity.

[5] = system: non-tumorigenic human breast MCF-10A cell line; experiment: Cytotoxicity towards non-tumorigenic MCF-10A cells; format: cell-based
HepG2 cells [6] = experiment: Cell cycle analysis (PI staining, flow cytometry); format: cell-based; details: HepG2, 6.9 µM (IC50), 24 h
Description: The samples were analysed by a flow cytometer (BectonDickinson FACSCalibur, BD, USA) and data were analysed using the CellQuest software (Becton Dickinson).
The impact of spirooxindole 6a on the normal cell cycle progression was investigated using flow cytometric analysis of the DNA ploidy in HepG2 cells. […] Alteration of the Pre-G phase and arrest of G2-M phase may imply apoptosis as a potential mechanism for 6a-induced cancer cell death.

Bax = experiment: ELISA of apoptotic marker Bax in HepG2 cells; format: cell-based; details: HepG2 treated at IC50 (6.9 µM)
Description: (§3) The levels of the apoptotic markers caspase-3, caspase-9, p53 and Bax, as well as the anti-apoptotic marker Bcl-2 were evaluated by the use of ELISA colorimetric kits per the manufacturer’s instructions, as reported earlier[28]^,[29]. Furthermore, the pro-apoptotic potential of spirooxindole 6a towards HepG2 cells was assessed using FITC Annexin V Apoptosis Detection Kit by flow cytometry, according to the manufacturer’s protocol and referring to the reported procedures[30]^,[31].
(§4) The Bax/Bcl-2 ratio is considered as a decisive value that gives a real insight to the overall pro-apoptotic impact of the examined compound.

Bcl-2 = experiment: ELISA of anti-apoptotic marker Bcl-2 in HepG2 cells; format: cell-based; details: HepG2 treated at IC50 (6.9 µM)
Description: as §3, §4

caspase-3 = experiment: ELISA of active caspase-3 in HepG2 cells; format: cell-based; details: HepG2 treated at IC50 (6.9 µM)
Description: as §3
(§5) The elevated Bax/Bcl-2 ratio aroused the assessment of the expression levels of the pro-apoptotic active caspase-3, caspase-9 and p53 tumour suppressor protein.

caspase-9 = experiment: ELISA of active caspase-9 in HepG2 cells; format: cell-based; details: HepG2 treated at IC50 (6.9 µM)
Description: as §3, §5

p53 = experiment: ELISA of p53 in HepG2 cells; format: cell-based; details: HepG2 treated at IC50 (6.9 µM)
Description: as §3, §5

HepG2 cells [7] = experiment: Annexin V-FITC/PI apoptosis assay; format: cell-based; details: HepG2, 6.9 µM (IC50)
Description: as §3

[8] = system: HepG2 hepatocellular carcinoma cell line; experiment: MTT anti-proliferative assay, HepG2; format: cell-based; details: 48 h exposure, phase contrast microscopy

| Structure (SMILES) | pIC50 [1] | pIC50 [2] | DPPH radical scavenging IC50 [3] | FRAP, µM (Fe^2+ Eq.) [4] | pIC50 [5] | other results |
| --- | --- | --- | --- | --- | --- | --- |
| O=C1O[C@H]([C@@H](O)CO)C(O)=C1O [Ascorbic acid, reference compound] | – | – | 45.89 ± 2.39 µg/mL | 13.42 µM (Fe^2+ Eq.) | – | – |
| N#CC1=C(c2ccc(Cl)cc2)Nc2c(c(-c3cccs3)nn2-c2ccccc2)C12C(=O)Nc1ccccc12 (stereo not shown) [Compound 6d] | 4.31 | < 4.30 | 33.43 ± 1.24 µg/mL | 10.99 µM (Fe^2+ Eq.) | – | – |
| N#CC1=C(c2ccccc2)Nc2c(c(-c3cccs3)nn2-c2ccccc2)C12C(=O)Nc1ccc(Cl)cc12 (stereo not shown) [Compound 6e] | 5.08 | 4.87 | 36.03 ± 1.37 µg/mL | 10.12 µM (Fe^2+ Eq.) | 4.16 | Morphological changes of HepG2 cells [8]: cell rounding, shrinkage and monolayer disruption |
| Cc1ccc(C2=C(C#N)C3(C(=O)Nc4ccc(Cl)cc43)c3c(-c4cccs4)nn(-c4ccccc4)c3N2)cc1 (stereo not shown) [Compound 6f] | 4.49 | 4.53 | 40.31 ± 2.61 µg/mL | 11.36 µM (Fe^2+ Eq.) | 3.80 | – |
| COc1ccc(C2=C(C#N)C3(C(=O)Nc4ccc(Cl)cc43)c3c(-c4cccs4)nn(-c4ccccc4)c3N2)cc1 (stereo not shown) [Compound 6g] | < 4.30 | < 4.30 | 97.47 ± 5.62 µg/mL | 7.79 µM (Fe^2+ Eq.) | – | – |
| COc1ccc2c(c1)C1(C(=O)N2)C(C#N)=C(c2ccccc2)Nc2c1c(-c1cccs1)nn2-c1ccccc1 (stereo not shown) [Compound 6m] | 4.51 | 4.61 | 28.07 ± 1.63 µg/mL | 12.13 µM (Fe^2+ Eq.) | 3.73 | – |
| COc1ccc2c(c1)C1(C(=O)N2)C(C#N)=C(c2ccc(C)cc2)Nc2c1c(-c1cccs1)nn2-c1ccccc1 (stereo not shown) [Compound 6n] | < 4.30 | 4.37 | 46.29 ± 2.52 µg/mL | 11.58 µM (Fe^2+ Eq.) | – | – |
| COc1ccc(C2=C(C#N)C3(C(=O)Nc4ccc(OC)cc43)c3c(-c4cccs4)nn(-c4ccccc4)c3N2)cc1 (stereo not shown) [Compound 6o] | < 4.30 | < 4.30 | 58.82 ± 3.14 µg/mL | 11.90 µM (Fe^2+ Eq.) | – | – |
| COc1ccc2c(c1)C1(C(=O)N2)C(C#N)=C(c2ccc(Cl)cc2)Nc2c1c(-c1cccs1)nn2-c1ccccc1 (stereo not shown) [Compound 6p] | < 4.30 | < 4.30 | 55.05 ± 3.41 µg/mL | 11.18 µM (Fe^2+ Eq.) | – | – |

Further lines, with some results ahead:

| pIC50 [1] | pIC50 [2] | DPPH radical scavenging IC50 [3] | Structure (SMILES) | FRAP, µM (Fe^2+ Eq.) [4] | pIC50 [5] | other results |
| --- | --- | --- | --- | --- | --- | --- |
| 6.92 | 6.21 | – | COc1cccc2c1C(=O)c1c(O)c3c(c(O)c1C2=O)C[C@@](O)(C(=O)CO)C[C@@H]3O[C@H]1C[C@H](N)[C@H](O)[C@H](C)O1 [Adriamycin, reference compound] | – | – | – |
| 5.16 | 4.93 | 29.76 ± 1.82 µg/mL | N#CC1=C(c2ccccc2)Nc2c(c(-c3cccs3)nn2-c2ccccc2)C12C(=O)Nc1ccccc12 (stereo not shown) [Compound 6a] | 11.98 µM (Fe^2+ Eq.) | 4.02 | decrease of S phase with respect to control (HepG2 cells [6]): ~0.37 folds; increase of G2/M phase related to control (HepG2 cells [6]): 2.1 folds; increase of Pre-G phase related to control (HepG2 cells [6]): 11.9 folds; Bax expression level (Bax): 232.2 ng/mL; Bax, folds of control (Bax): 5.7 folds of control; Bax/Bcl-2 ratio (Bax): 92.5; Bcl-2, folds of control (Bcl-2): 0.57 folds of control; Bcl-2 expression level (Bcl-2): 2.51 ng/mL; down-regulation of Bcl-2 expression compared to control (Bcl-2): ~42%; Caspase-3 expression level (caspase-3): 475.9 pg/mL; Caspase-9, folds of control (caspase-9): ~12.27 folds of control; Caspase-9 expression level (caspase-9): 26.92 ng/mL; p53, folds of control (p53): ~10.03 folds of control and ~10 folds of control; p53 expression level (p53): 774.5 pg/mL; total increase in apoptosis with respect to control (HepG2 cells [7]): about 16.3 folds; late apoptosis (upper right quadrant), annexin-V positive cells (HepG2 cells [7]; control 0.33%): 14.14%; early apoptosis (lower right quadrant), annexin-V positive cells (HepG2 cells [7]; control 0.95%): 6.76%; Morphological changes of HepG2 cells [8]: cell rounding, shrinkage and monolayer disruption |
| 4.68 | 4.47 | 113.45 ± 5.59 µg/mL | Cc1ccc(C2=C(C#N)C3(C(=O)Nc4ccccc43)c3c(-c4cccs4)nn(-c4ccccc4)c3N2)cc1 (stereo not shown) [Compound 6b] | 6.933 µM (Fe^2+ Eq.) | 3.92 | – |
| 4.72 | 4.36 | 43.04 ± 2.39 µg/mL | COc1ccc(C2=C(C#N)C3(C(=O)Nc4ccccc43)c3c(-c4cccs4)nn(-c4ccccc4)c3N2)cc1 (stereo not shown) [Compound 6c] | 10.32 µM (Fe^2+ Eq.) | 3.85 | – |
| 4.70 | < 4.30 | 46.29 ± 2.18 µg/mL | N#CC1=C(c2ccc(Cl)cc2)Nc2c(c(-c3cccs3)nn2-c2ccccc2)C12C(=O)Nc1ccc(Cl)cc12 (stereo not shown) [Compound 6h] | 11.35 µM (Fe^2+ Eq.) | – | – |
| 5.20 | 4.75 | 36.38 ± 2.71 µg/mL | N#CC1=C(c2ccccc2)Nc2c(c(-c3cccs3)nn2-c2ccccc2)C12C(=O)Nc1ccc(Br)cc12 (stereo not shown) [Compound 6i] | 11.88 µM (Fe^2+ Eq.) | 4.11 | Morphological changes of HepG2 cells [8]: cell rounding, shrinkage and monolayer disruption |
| 5.00 | 4.58 | 43.42 ± 3.04 µg/mL | Cc1ccc(C2=C(C#N)C3(C(=O)Nc4ccc(Br)cc43)c3c(-c4cccs4)nn(-c4ccccc4)c3N2)cc1 (stereo not shown) [Compound 6j] | 10.34 µM (Fe^2+ Eq.) | 3.83 | – |
| 4.88 | 4.41 | 69.25 ± 4.25 µg/mL | COc1ccc(C2=C(C#N)C3(C(=O)Nc4ccc(Br)cc43)c3c(-c4cccs4)nn(-c4ccccc4)c3N2)cc1 (stereo not shown) [Compound 6k] | 8.499 µM (Fe^2+ Eq.) | 3.87 | – |
| 4.90 | < 4.30 | 41.36 ± 2.17 µg/mL | N#CC1=C(c2ccc(Cl)cc2)Nc2c(c(-c3cccs3)nn2-c2ccccc2)C12C(=O)Nc1ccc(Br)cc12 (stereo not shown) [Compound 6l] | 11.59 µM (Fe^2+ Eq.) | – | – |
